Patent US8263555B2 (Alcon Research, Ltd., priority 2007, dated 2012)
Where “and” joins values, the source holds several entries; their conditions need not be identical. Equal entries are not always repeated. Each block holds one compound with its values, some of them ahead of it.

What was measured:
h-CM cells = assay: Production and release of endogenous prostaglandins from h-CM cells; format: cell-based, human; conditions: BK 1 μM, relative to baseline and to fluprostenol
Experimental: A functional assay to discover BK agonists may involve the measurement of prostaglandin E2 (PGE2) production (Wiernas et al. Brit. J. Pharmacol. 123: 1127-1137, 1998), for instance, in cells isolated from human or animal ocular or non-ocular tissues, or cells expressing recombinant (preferably human) BK receptors. Cells expressing BK receptors are seeded in 48-wells culture plates and allowed to reach confluence. After this time the cells are rinsed twice with 0.5 mL of phosphate buffered saline and incubated with the test agent made up in 0.5 mL Dulbeco's modified Eagle's medium (DMEM)/F-12 for 1 h at 37° C. […]
After this incubation, all tubes are placed in an ice-bath and 1 ml cold precipitating reagent supplied in the kit is added to the tubes, the content mixed and incubated for 25 min at 4° C. […] The supernatants of all tubes are decanted as specified in the kit instructions and the RIA samples analyzed on a gamma-counter. The levels of PGE2 generated by the test agent are then quantified in comparison with the PGE2-standard curve. Dose-response data for the test agent are constructed and the potency and intrinsic activity determined as described above for other assays. […]

[1] = target: T1, B2-receptors in h-NPE cells (Homo sapiens, UniProt P30411); assay: BK- and BK-related peptide-induced [Ca^2+]i mobilization in h-NPE cells (agonist potency); format: cell-based; conditions: BK = 100%, read-out: Intrinsic Activity (Emax, % max relative to BK)
T1 construct: we discovered and pharmacologically characterized B2-receptor proteins in h-TM, h-CM and h-NPE cells; endogenous in cells; host or cells: immortalized human non-pigmented ciliary epithelial (h-NPE) cells
T1 sequence (P30411 1-391): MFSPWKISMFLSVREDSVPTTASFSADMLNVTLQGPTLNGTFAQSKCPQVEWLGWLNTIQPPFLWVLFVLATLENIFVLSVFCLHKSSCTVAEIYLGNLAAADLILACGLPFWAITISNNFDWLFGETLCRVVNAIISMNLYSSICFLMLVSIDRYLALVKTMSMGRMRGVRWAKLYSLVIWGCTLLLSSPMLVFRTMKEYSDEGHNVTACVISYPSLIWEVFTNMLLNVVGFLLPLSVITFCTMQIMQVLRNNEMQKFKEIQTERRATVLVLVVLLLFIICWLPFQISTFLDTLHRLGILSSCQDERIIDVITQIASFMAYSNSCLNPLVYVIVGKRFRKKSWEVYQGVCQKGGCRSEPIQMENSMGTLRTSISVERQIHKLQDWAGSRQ

rabbit IOP = assay: Acute IOP response in rabbit eyes, intravitreal administration; format: in vivo; conditions: 50 μg, relative to vehicle alone
Experimental: IOP is determined with an applanation pneumatonometer after light corneal anesthesia with 0.1% proparacaine. After baseline IOP measurements are taken, one eye of each of 7-10 (or both eyes of 5) rabbits per compound dose is topically dosed with compound. Either the contralateral eye is dosed with vehicle or a separate group of rabbits is used for vehicle control. Subsequent IOP measurements are taken at 0.5, 1, 2, 3, and 4 hours. In cases where the compound has poor ocular bioavailability, the compound may need to be administered intracamerally or intravitreally in order to observe the IOP-lowering efficacy.
Conversely, non-peptidic BK antagonists dosed topical ocularly in the ocular hypertensive monkey eyes were ineffective at modulating IOP (see below Example 4).

[2] = target: T2, BK B2-Receptor in h-CM cells (Homo sapiens, UniProt P30411); assay: Antagonism of BK-induced [Ca^2+]i mobilization in h-CM cells; format: cell-based; conditions: read-out: Antagonist Potency (Ki; nM) vs BK (10 nM) in [Ca^2+]i Mobilization Assay, mean ± SEM or individual experiments
T2 construct: we discovered and pharmacologically characterized B2-receptor proteins in h-TM, h-CM and h-NPE cells; endogenous in cells; host or cells: primary human ciliary muscle (h-CM) cells
T2 sequence (P30411 1-391): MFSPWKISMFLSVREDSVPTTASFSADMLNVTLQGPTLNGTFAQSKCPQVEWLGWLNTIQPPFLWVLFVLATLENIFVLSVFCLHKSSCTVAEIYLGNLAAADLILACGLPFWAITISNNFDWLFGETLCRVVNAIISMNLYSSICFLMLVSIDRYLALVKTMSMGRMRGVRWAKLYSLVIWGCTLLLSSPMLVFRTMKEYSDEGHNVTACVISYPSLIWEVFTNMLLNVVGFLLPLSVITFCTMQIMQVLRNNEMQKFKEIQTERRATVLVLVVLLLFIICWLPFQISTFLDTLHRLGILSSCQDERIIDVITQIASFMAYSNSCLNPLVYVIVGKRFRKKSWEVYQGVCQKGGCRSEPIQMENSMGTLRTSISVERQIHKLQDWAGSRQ
Experimental: (§1) Opthalmol. Vis. Res. 47: 4001-4019, 2006; Sharif et al., J. Ocular Pharmacol. Ther. 22: 291-309, 2006).
(§2) On the day of the experiment, one vial of FLIPR Calcium Assay Kit dye is re-suspended in 50 mL of a FLIPR buffer consisting of Hank's Balanced Salt Solution (HBSS), 20 mM HEPES, and 2.5 mM probenecid, pH 7.4. Cells are loaded with the calcium-sensitive dye by addition of an equal volume (50 μL) to each well of the 96-well plate and incubated with dye for 1 h at 23° C. After this time, the test compound plate and cell plate are placed in the FLIPR instrument. At the beginning of an experimental run, a signal test is performed to check the basal fluorescence signal from the dye-loaded cells and the uniformity of the signal across the plate. The basal fluorescence is adjusted between 8000-12000 counts by modifying the exposure time, the camera F-stop, or the laser power. Instrument settings for a typical assay are the following: laser power 0.3-0.6 W, camera F-stop F/2, and exposure time 0.4 sec.
(§3) Fluorescence data are collected in real-time at 1.0 sec intervals for the first 60 secs and at 6.0 sec intervals for an additional 120 secs. […] The data are then analyzed using an automated, iterative, sigmoidal curve-fitting computer program to obtain the potency and intrinsic activities of the test agents as previously described (Sharif et al. J. Pharmacol. Exp. Ther. 286: 1094-1102, 1998; Sharif et al. Invest. Opthalmol. Vis. Sci. 39:2562-2571, 1998; Kelly et al. J. Pharmacol. Exp. Ther. 304: 238-245, 2003). The sources of materials and reagents for such assays can be found in the references cited above.

[3] = target: T3, BK B2-Receptor in h-NPE cells (Homo sapiens, UniProt P30411); assay: Antagonism of BK-induced [Ca^2+]i mobilization in immortalized h-NPE cells; format: cell-based; conditions: read-out: Antagonist Potency (Ki; nM) vs BK (10 nM) in [Ca^2+]i Mobilization Assay, mean ± SEM or individual experiments
T3 construct: we discovered and pharmacologically characterized B2-receptor proteins in h-TM, h-CM and h-NPE cells; endogenous in cells; host or cells: immortalized human non-pigmented ciliary epithelial (h-NPE) cells
T3 sequence (P30411 1-391): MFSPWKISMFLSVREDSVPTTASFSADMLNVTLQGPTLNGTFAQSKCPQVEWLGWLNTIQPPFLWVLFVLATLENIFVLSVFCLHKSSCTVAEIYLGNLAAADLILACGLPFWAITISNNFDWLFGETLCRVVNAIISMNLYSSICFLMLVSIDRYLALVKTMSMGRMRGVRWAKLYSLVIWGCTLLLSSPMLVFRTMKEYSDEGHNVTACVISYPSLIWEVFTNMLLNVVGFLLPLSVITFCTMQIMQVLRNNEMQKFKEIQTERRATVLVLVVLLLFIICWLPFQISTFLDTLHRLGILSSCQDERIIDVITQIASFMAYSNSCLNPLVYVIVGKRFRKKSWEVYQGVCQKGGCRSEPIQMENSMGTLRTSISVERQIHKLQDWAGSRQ
Experimental: as §1, §2, §3

[4] = test system: Conscious Ocular Hypertensive Cynomolgus Monkey Eyes; assay: IOP response in conscious ocular hypertensive cynomolgus monkey eyes; format: in vivo; conditions: for % Change in IOP (mmHg): topical ocular 300 μg, mean ± SEM
Experimental: Intraocular pressure (IOP) is determined with an Alcon Pneumatonometer (Alcon Laboratories, Inc., Fort Worth, Tex.) after light corneal anesthesia with 0.1% proparacaine. Right eyes are hypertensive as a result of laser trabeculoplasty. After a baseline IOP measurement, test compound is instilled in the right eyes only of 8-10 cynomolgus monkeys. Vehicle is instilled in the right eyes of 5-6 additional animals. […] IOP measurements are also taken on left eyes (normotensive and untreated) at each of these time points. The percent change in IOP from baseline is determined for each animal for every IOP measurement (Sharif et al. J. Ocular Pharmacol. Ther. 17: 305-317, 2001; May et al., J Pharmacol Exp Ther. 306: 301-309, 2003; Sharif et al. Invest. Opthalmol. Vis. Res. 47: 4001-4010, 2006). Group mean and standard error of the mean (SEM) are calculated for each time point. […] In cases where the compound of invention has poor ocular bioavailability, the compound may need to be administered intracamerally or intravitreally in order to observe the IOP-lowering efficacy.

[5] = target: T4, BK B2-Receptor in h-TM cells (Homo sapiens, UniProt P30411); assay: Antagonism of BK-induced [Ca^2+]i mobilization in h-TM cells; format: cell-based; conditions: read-out: Antagonist Potency (Ki; nM) vs BK (10 nM) in [Ca^2+]i Mobilization Assay, mean ± SEM or individual experiments
T4 construct: we discovered and pharmacologically characterized B2-receptor proteins in h-TM, h-CM and h-NPE cells; endogenous in cells; host or cells: primary human trabecular meshwork (h-TM) cells
T4 sequence (P30411 1-391): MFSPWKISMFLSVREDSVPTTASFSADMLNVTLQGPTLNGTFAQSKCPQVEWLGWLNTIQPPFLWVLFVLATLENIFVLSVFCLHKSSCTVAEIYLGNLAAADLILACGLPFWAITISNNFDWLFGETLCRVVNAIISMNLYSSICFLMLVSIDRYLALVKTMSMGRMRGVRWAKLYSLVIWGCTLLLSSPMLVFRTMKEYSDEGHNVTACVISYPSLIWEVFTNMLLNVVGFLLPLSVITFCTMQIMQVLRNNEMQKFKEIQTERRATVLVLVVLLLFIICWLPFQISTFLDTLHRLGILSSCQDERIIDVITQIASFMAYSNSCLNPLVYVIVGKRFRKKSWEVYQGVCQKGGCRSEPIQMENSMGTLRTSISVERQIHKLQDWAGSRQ
Experimental: as §1
as §2, with “Instrument settings for a typical assay are the following: laser power 0.3-0.6 W, camera F-stop F/2, and exposure time 0.4 sec.” left out
as §3, with “The sources of materials and reagents for such assays can be found in the references cited above.” left out

SMILES: O=C(O)CCC/C=C\C[C@@H]1[C@@H](/C=C/[C@@H](O)COc2cccc(C(F)(F)F)c2)[C@H](O)C[C@@H]1O (racemic) [fluprostenol]
- production of prostaglandins (h-CM cells): stimulation of production and release of endogenous prostaglandins

SMILES: N=C(N)NCCC[C@H](N)C(=O)N1CCC[C@H]1C(=O)N1CCC[C@H]1C(=O)NCC(=O)N[C@@H](Cc1ccccc1)C(=O)N[C@@H](CO)C(=O)N1CCC[C@H]1C(=O)N[C@@H](Cc1ccccc1)C(=O)O [Des-Arg^9-BK]
- Emax [1]: 70 to 77%
- effect on rabbit IOP (rabbit IOP): not

- Ki [2]: 11 nM and 4 nM
SMILES: CNC(=O)c1ccc(/C=C/C(=O)NCC(=O)N(C)c2ccc(Cl)c(COc3cccc4ccc(C)nc34)c2Cl)cc1 [FR-165649]
- Ki [3]: 393 nM and 337 nM
- % Change in IOP (mmHg) ([4]; Dose 1/1 hr post-dose): 1.0 ± 3.1%
- % Change in IOP (mmHg) ([4]; Dose 1/3 hr post-dose): 0.7 ± 3.5%
- % Change in IOP (mmHg) ([4]; Dose 1/6 hr post-dose): −6.2 ± 4.7%
- % Change in IOP (mmHg) ([4]; Dose 1/24 hr post-dose): −4.0 ± 3.2%
- modulation of IOP (in words) ([4]; topically administered 300 μg, conscious cynomolgus monkeys): failed to modulate IOP

- Ki [5]: 69 nM and 19 nM
- Ki [2]: 13 nM and 4 nM
SMILES: Cc1nc2c(OCc3c(Cl)ccc(N(C)C(=O)CNC(=O)/C=C/c4ccc(C(=O)N(C)C)cc4)c3Cl)cccn2c1Br [FR-167344]
- Ki [3]: 393 nM and 223 nM
